Legend:
Histamine H3 receptor [1] = molecular target: T1, Histamine H3 receptor (Homo sapiens, UniProt Q9Y5N1); assay: Displacement of [3H]NAMH from human histamine H3 receptor expressed in CHO cells; assay type: cell-based
Histamine H3 receptor [2] = molecular target: Histamine H3 receptor (Rattus norvegicus, UniProt Q9QYN8); assay: Displacement of [3H]NAMH from rat histamine H3 receptor expressed in CHO cells; assay type: cell-based
Histamine H3 receptor [3] = molecular target: T1, Histamine H3 receptor; assay: Antagonist activity at human histamine H3 receptor by [35S]GTPgammaS binding assay; assay type: functional
Cytochrome P450 2C9 = Cytochrome P450 2C9 (Homo sapiens, UniProt P11712); assay: Inhibition of CYP2C9; assay type: ADME
[4] = Solubility of the compound in water at pH 2; assay type: physicochemical
[5] = Ratio of drug level in brain to plasma in rat at 10 mg/kg, ip after 6 hrs; assay type: ADME, organism-based; design: dose 10 mg/kg, route intraperitoneal; settings: brain/plasma, read-out: BPR
[6] = molecular target: Histamine H1 receptor (Homo sapiens) (UniProt P35367); assay: Inhibition human histamine H1 receptor at 10 uM
Rattus norvegicus [7] = assay: Effect on sleep-awake cycle in EEG/EMG rat model assessed as wake promotion time at 10 mg/kg, ip after 3 hrs relative to control; assay type: functional; settings: route intraperitoneal
[8] = Half life in human liver microsomes; assay type: ADME, Microsome
Rattus norvegicus [9] = assay: Effect on sleep-awake cycle in EEG/EMG rat model assessed as wake promotion at 1 mg/kg, ip after 4 hrs (reference value: 80 +/- 5 mins); assay type: functional; settings: route intraperitoneal
[10] = Plasma protein binding in rat; assay type: ADME, cell-free; settings: read-out: PPB (converted)
[11] = Half life in rat liver microsomes; assay type: ADME, Microsome
[12] = Half life in rat at 1 mg/kg, iv; assay type: ADME, organism-based; design: dose 1 mg/kg, route intravenous; settings: in vivo
Rattus norvegicus [13] = assay: Effect on sleep-awake cycle in EEG/EMG rat model assessed as wake promotion at 10 mg/kg, ip after 4 hrs (reference value: 80 +/- 5 mins); assay type: functional; settings: route intraperitoneal
[14] = Drug uptake in rat brain at 5 mg/kg, po after 6 hrs; assay type: ADME, organism-based; design: dose 5 mg/kg, route oral; settings: read-out: Drug uptake
[15] = Cmax in rat at 5 mg/kg, po; assay type: ADME, organism-based; design: dose 5 mg/kg, route oral; settings: in vivo
[16] = Half life in dog liver microsomes; assay type: ADME, Canis lupus familiaris, Microsome
[17] = molecular target: Histamine H2 receptor (Homo sapiens) (UniProt P25021); assay: Inhibition human histamine H2 receptor at 10 uM
Rattus norvegicus [18] = assay: Effect on sleep-awake cycle in ip dosed EEG/EMG rat model assessed as wake promotion after 4 hrs relative to control; assay type: functional, organism-based
Cytochrome P450 3A4 = Cytochrome P450 3A4 (Homo sapiens, UniProt P08684); assay: Inhibition of CYP3A4; assay type: ADME
Rattus norvegicus [19] = assay: Effect on sleep-awake cycle in EEG/EMG rat model assessed as wake promotion at 3 mg/kg, ip after 4 hrs (reference value: 80 +/- 5 mins); assay type: functional; settings: route intraperitoneal
[20] = Clearance in rat at 1 mg/kg, iv; assay type: ADME, organism-based; design: dose 1 mg/kg, route intravenous; settings: in vivo
[21] = Apparent permeability of the compound in human Caco2 cells; assay type: ADME, cell-based; settings: Caco-2
[22] = Volume of distribution in rat at 1 mg/kg, iv; assay type: ADME, organism-based; design: dose 1 mg/kg, route intravenous; settings: in vivo
[23] = Oral bioavailability in rat at 5 mg/kg; assay type: ADME, organism-based; settings: in vivo
[24] = AUC in rat at 5 mg/kg, po; assay type: ADME, organism-based, Plasma; design: dose 5 mg/kg, route oral; settings: plasma
Rattus norvegicus [25] = assay: Inhibition of RAMH-induced dipsogenia in po dosed rat; assay type: functional
Cytochrome P450 2D6 = Cytochrome P450 2D6 (Homo sapiens, UniProt P10635); assay: Inhibition of CYP2D6; assay type: ADME
Histamine H3 receptor [26] = molecular target: T1, Histamine H3 receptor; assay: Inverse agonist activity at human histamine H3 receptor by [35S]GTPgammaS binding assay; assay type: functional
Rattus norvegicus [27] = assay: Effect on sleep-awake cycle in EEG/EMG rat model assessed as wake promotion time at 10 mg/kg, ip after 4 hrs relative to control; assay type: functional; settings: route intraperitoneal
Rattus norvegicus [28] = assay: Effect on sleep-awake cycle in EEG/EMG rat model assessed as wake promotion at 10 mg/kg, ip after 17 hrs relative to control; assay type: functional; settings: route intraperitoneal
Cytochrome P450 1A2 = molecular target: T2, Cytochrome P450 1A2 (Homo sapiens, UniProt P05177); assay: Inhibition of CYP1A2; assay type: ADME
T2 sequence (P05177 whole entry): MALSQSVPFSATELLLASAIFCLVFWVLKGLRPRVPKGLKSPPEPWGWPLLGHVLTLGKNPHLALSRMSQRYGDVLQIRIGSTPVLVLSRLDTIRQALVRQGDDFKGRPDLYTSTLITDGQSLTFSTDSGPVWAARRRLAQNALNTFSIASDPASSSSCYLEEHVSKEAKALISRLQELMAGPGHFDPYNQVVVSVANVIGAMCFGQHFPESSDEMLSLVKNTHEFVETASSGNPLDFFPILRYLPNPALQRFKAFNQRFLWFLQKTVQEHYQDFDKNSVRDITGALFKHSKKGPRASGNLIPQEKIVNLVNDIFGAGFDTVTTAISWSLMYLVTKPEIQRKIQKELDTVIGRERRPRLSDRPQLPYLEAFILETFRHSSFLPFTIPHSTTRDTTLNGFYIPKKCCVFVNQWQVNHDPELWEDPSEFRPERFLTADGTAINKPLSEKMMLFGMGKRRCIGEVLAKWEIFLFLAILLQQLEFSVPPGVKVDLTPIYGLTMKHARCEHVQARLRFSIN

[29] = Solubility of the compound in water at pH 7.4; assay type: physicochemical
Cytochrome P450 2C19 = Cytochrome P450 2C19 (Homo sapiens, UniProt P33261); assay: Inhibition of CYP2C19; assay type: ADME
[30] = Plasma protein binding in human; assay type: ADME, cell-free; settings: read-out: PPB (converted)
[31] = Half life in monkey liver microsomes; assay type: ADME, Macaca mulatta, Microsome; settings: rhesus monkey
[32] = Plasma protein binding in dog; assay type: ADME, cell-free, Canis lupus familiaris; settings: read-out: PPB (converted)
Rattus norvegicus [33] = assay: Effect on sleep-awake cycle in EEG/EMG rat model assessed as wake promotion at 10 mg/kg, ip after 5 hrs relative to control; assay type: functional; settings: route intraperitoneal
[34] = molecular target: Histamine H4 receptor (Homo sapiens) (UniProt Q9H3N8); assay: Inhibition human histamine H4 receptor at 10 uM
[35] = Half life in mouse liver microsomes; assay type: ADME, Microsome

Sequence of Histamine H3 receptor (Rattus norvegicus, UniProt Q9QYN8) (Q9QYN8 whole entry): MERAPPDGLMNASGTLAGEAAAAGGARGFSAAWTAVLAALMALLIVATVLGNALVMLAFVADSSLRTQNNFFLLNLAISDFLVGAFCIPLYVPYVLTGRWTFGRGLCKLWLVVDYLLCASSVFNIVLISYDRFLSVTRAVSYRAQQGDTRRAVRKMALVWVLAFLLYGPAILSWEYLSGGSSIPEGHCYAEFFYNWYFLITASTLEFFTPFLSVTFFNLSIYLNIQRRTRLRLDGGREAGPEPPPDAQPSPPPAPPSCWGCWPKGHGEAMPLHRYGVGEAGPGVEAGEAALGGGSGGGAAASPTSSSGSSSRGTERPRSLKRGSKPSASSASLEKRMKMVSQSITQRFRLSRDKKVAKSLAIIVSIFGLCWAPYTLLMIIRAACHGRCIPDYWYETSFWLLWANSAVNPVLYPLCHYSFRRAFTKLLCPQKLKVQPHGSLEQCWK
T1 sequence (Q9Y5N1 whole entry): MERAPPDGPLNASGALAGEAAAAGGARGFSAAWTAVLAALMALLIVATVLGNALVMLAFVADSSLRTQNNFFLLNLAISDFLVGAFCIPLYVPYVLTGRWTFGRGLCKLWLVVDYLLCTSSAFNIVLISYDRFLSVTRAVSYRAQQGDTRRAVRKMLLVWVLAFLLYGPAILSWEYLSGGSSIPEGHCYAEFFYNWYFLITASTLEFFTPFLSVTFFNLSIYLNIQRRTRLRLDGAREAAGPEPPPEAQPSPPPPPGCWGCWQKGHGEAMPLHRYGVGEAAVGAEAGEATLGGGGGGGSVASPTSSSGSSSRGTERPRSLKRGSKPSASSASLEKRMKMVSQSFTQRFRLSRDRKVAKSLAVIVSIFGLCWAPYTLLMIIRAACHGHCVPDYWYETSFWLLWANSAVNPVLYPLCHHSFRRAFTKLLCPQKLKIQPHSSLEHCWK
Sequence of Histamine H1 receptor (Homo sapiens) (P35367 whole entry): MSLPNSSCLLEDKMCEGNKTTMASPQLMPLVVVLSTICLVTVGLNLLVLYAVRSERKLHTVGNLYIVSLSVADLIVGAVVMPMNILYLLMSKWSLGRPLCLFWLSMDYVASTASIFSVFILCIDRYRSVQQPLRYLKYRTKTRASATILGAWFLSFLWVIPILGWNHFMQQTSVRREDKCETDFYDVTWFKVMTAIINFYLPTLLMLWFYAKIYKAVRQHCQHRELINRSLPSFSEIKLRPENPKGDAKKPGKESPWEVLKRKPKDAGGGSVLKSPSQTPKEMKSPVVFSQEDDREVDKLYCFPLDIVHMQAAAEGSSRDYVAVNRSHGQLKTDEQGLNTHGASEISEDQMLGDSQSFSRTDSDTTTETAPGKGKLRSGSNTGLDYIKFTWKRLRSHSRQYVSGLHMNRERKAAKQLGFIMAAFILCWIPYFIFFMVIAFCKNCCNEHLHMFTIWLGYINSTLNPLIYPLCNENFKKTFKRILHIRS
Sequence of Histamine H2 receptor (Homo sapiens) (P25021 whole entry): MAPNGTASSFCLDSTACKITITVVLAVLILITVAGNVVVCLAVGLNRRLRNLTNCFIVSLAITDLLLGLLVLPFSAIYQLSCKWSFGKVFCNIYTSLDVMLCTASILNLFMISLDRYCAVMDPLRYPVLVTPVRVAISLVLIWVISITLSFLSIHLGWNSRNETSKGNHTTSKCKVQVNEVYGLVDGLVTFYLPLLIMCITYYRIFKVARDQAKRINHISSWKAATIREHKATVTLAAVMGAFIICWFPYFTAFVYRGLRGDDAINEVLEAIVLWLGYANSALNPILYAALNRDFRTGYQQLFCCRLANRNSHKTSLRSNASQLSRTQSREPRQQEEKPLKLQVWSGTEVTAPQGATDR
Sequence of Cytochrome P450 3A4 (P08684 whole entry): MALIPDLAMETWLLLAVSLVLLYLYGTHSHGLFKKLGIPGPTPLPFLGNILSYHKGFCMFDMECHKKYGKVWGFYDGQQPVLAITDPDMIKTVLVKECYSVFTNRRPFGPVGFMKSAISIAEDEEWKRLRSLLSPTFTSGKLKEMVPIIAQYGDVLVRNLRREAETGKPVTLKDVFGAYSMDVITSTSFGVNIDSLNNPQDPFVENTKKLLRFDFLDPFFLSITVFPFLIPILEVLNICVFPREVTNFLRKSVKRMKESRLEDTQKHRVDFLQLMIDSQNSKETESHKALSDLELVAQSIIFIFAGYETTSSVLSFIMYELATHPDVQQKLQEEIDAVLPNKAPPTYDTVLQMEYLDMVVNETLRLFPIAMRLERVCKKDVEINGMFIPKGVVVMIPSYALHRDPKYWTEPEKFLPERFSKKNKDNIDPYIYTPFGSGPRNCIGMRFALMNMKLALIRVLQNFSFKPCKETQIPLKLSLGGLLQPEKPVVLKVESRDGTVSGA
Sequence of Cytochrome P450 2C9 (P11712 whole entry): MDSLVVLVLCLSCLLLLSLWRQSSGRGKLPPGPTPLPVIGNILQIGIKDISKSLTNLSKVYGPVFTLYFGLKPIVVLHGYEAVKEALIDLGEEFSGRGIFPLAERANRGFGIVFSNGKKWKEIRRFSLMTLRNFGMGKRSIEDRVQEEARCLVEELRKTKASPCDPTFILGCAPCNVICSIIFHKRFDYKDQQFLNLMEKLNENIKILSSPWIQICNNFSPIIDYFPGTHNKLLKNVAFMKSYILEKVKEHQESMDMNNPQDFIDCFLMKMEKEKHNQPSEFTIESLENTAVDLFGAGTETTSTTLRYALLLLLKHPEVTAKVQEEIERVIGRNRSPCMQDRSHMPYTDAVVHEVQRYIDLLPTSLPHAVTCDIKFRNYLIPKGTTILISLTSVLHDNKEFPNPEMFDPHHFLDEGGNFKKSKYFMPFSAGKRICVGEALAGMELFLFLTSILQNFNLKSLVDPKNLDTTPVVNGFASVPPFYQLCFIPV
Sequence of Cytochrome P450 2C19 (P33261 whole entry): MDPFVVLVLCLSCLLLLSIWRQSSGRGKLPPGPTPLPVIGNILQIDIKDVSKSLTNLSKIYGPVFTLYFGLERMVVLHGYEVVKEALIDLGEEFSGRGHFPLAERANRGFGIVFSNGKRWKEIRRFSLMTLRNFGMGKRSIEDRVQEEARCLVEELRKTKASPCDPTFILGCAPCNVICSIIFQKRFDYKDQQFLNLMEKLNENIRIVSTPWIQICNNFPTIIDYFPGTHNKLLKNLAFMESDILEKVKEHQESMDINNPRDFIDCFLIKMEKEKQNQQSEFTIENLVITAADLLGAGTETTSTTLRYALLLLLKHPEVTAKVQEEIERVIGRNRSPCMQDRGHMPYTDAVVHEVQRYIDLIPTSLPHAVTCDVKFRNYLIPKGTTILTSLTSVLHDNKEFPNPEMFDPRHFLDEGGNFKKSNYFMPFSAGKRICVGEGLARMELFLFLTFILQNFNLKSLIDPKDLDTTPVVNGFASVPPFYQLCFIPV
Sequence of Cytochrome P450 2D6 (P10635 whole entry): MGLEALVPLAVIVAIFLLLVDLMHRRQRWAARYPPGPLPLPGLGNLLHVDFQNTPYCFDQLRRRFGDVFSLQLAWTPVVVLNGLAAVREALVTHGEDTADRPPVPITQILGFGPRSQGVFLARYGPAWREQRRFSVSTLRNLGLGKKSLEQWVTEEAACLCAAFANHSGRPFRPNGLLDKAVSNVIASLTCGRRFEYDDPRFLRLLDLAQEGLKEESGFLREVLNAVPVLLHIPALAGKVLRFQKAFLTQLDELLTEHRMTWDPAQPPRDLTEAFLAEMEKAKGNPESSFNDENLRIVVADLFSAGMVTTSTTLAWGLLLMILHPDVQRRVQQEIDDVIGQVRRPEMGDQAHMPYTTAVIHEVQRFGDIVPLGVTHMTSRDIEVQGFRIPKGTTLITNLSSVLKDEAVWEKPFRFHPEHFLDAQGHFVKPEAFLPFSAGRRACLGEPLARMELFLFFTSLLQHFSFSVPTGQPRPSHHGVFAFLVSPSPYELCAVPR
Sequence of Histamine H4 receptor (Homo sapiens) (Q9H3N8 whole entry): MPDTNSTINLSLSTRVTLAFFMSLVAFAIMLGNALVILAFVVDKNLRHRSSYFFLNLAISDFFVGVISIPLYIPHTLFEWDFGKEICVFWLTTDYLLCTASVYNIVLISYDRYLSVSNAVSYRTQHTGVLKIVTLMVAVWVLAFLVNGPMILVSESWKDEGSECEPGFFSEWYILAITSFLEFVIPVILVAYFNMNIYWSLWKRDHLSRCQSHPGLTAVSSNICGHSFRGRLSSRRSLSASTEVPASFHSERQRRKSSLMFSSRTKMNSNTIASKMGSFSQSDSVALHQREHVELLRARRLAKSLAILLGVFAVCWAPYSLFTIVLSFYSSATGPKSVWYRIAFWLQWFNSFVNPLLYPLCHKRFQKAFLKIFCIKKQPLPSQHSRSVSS

O=C1CCC(c2ccc(OCCCN3CCCC3)cc2)=NN1
Ki (Histamine H3 receptor [1]): 74 nM
Ki (Histamine H3 receptor [2]): 256 nM

CC(C)N1N=C(c2ccc(OCCCN3CCC[C@H]3C)cc2)CCC1=O
Ki (Histamine H3 receptor [1]): 9 nM
Ki (Histamine H3 receptor [2]): 63 nM

C[C@@H]1CCCN1CCCOc1ccc(C2=NNC(=O)C(c3ccccn3)C2)cc1 (mixture of isomers)
Ki (Histamine H3 receptor [1]): 8.8 nM
Ki (Histamine H3 receptor [2]): 42 nM

C[C@@H]1CCCN1CCCOc1ccc(C2=NNC(=O)CC2c2ccccn2)cc1 (mixture of isomers)
Ki (Histamine H3 receptor [1]): 9.9 nM
Ki (Histamine H3 receptor [2]): 21 nM

C[C@@H]1CCCN1CCCOc1ccc(C2=NNC(=O)CC2(C)C)cc1
Ki (Histamine H3 receptor [1]): 20 nM
Ki (Histamine H3 receptor [2]): 59 nM

CC1CC(=O)NN=C1c1ccc(OCCCN2CCC[C@H]2C)cc1 (mixture of isomers)
Ki (Histamine H3 receptor [1]): 5.6 nM
Ki (Histamine H3 receptor [2]): 18 nM

CC1CC(=O)NN=C1c1ccc(OCCCN2CCC[C@H]2C)cc1 (single isomer, unassigned; isomer 2)
Kb (Histamine H3 receptor [3]): 0.54 nM

C[C@@H]1CCCN1CCCOc1ccc(C2=NN(c3ccccn3)C(=O)CC2)cc1
Ki (Histamine H3 receptor [1]): 12 nM
Ki (Histamine H3 receptor [2]): 42 nM

C[C@@H]1CCCN1CCCOc1ccc(C2=NN(Cc3ccccc3)C(=O)CC2)cc1
Ki (Histamine H3 receptor [1]): 2 nM
Ki (Histamine H3 receptor [2]): 25 nM

C[C@@H]1CCCN1CCCOc1ccc(C2=NN(CC(F)(F)F)C(=O)CC2)cc1
Ki (Histamine H3 receptor [1]): 5 nM
Ki (Histamine H3 receptor [2]): 10 nM

C[C@@H]1CCCN1CCCOc1ccc(C2=NNC(=O)C(C)(C)C2)cc1
IC50 (Cytochrome P450 2C9): > 30000 nM
solubility [4]: > 2000 µg/mL
Kp at 6 h [5]: 2.4
inhibition [6]: < 30%
Activity (Rattus norvegicus [7]): 90%
half-life [8]: > 40 min
Activity (Rattus norvegicus [9]): 119 min
fraction unbound [10]: 0.72
half-life [11]: > 40 min
half-life [12]: 114 min
Activity (Rattus norvegicus [13]): 201 min
concentration at 6 h [14]: 900 nM
Cmax [15]: 189 ng/mL
half-life [16]: > 40 min
inhibition [17]: < 30%
Ki (Histamine H3 receptor [1]): 4.3 nM
Activity (Rattus norvegicus [18]): Dose-dependent effect
IC50 (Cytochrome P450 3A4): > 30000 nM
Activity (Rattus norvegicus [19]): 127 min
clearance [20]: 27 mL/min/kg
Papp [21]: 14 ×10⁻⁶ cm/s
Vd [22]: 4.7 L/kg
bioavailability [23]: 38%
AUC [24]: 837 ng·h/mL
ED50 (Rattus norvegicus [25]): 0.16 mg/kg
inhibition (Rattus norvegicus [25]): Dose-dependent effect
IC50 (Cytochrome P450 2D6): > 30000 nM
Ki (Histamine H3 receptor [2]): 13 nM
EC50 (Histamine H3 receptor [26]): 0.73 nM
Activity (Rattus norvegicus [27]): 150%
Activity (Rattus norvegicus [28]): 203 min
Kb (Histamine H3 receptor [3]): 0.18 nM
IC50 (Cytochrome P450 1A2): > 30000 nM
solubility [29]: > 2000 µg/mL
IC50 (Cytochrome P450 2C19): > 30000 nM
fraction unbound [30]: 0.74
half-life [31]: > 40 min
fraction unbound [32]: 0.84
Activity (Rattus norvegicus [33]): 130 min
inhibition [34]: < 30%
half-life [35]: > 40 min

— ChEMBL document CHEMBL1932917, “4,5-dihydropyridazin-3-one derivatives as histamine H₃ receptor inverse agonists” (Bioorg Med Chem Lett, 2012)
